The text below walks through data of patent US10206394B2, “Herbicidal compounds” (Syngenta Participations AG, priority 2014, dated 2019).

Read-outs that look alike come from different tables or passages of the source.

What all share (test): Glasshouse assay for herbicidal activity (pre- and post-emergence), percentage phytotoxicity
Assay type in all cases: in vivo

In experiment [1] the test system is Echinochloa crus-galli (ECHCG). The following applies: Echinochloa crus-galli. In short, it runs like this: (§1)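 Damage was rated visually as percent phytotoxicity, 100% meaning total kill, 20 days after pre-emergence application (made one day post-sowing) or 15 days after post-emergence application (made about 12 days post-sowing). Plants were grown under 16 h light, 65% humidity, warm species 24/18° C, cool 20/16° C.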

The subject of another experiment is Avena fatua (AVEFA). To be noted: Avena fatua. In short, it runs like this: as §1
The test system of a further experiment is Lolium perenne (LOLPE). To be noted: Lolium perenne. The procedure, abridged:
as §1

The test system of experiment [2] is Alopecurus myosuroides (ALOMY). The following applies: Alopecurus myosuroides. In short, it runs like this: as §1
[3] abbreviates: post-emergence, 360 h, 250 g/ha, post-emergence, 15 DAA, visual assessment (100%=total damage, 0%=no damage), read-out: Post-emergence herbicidal activity (percentage phytotoxicity) ECHCG POST.
Where [4] appears, read: pre-emergence, 480 h, 250 g/ha, pre-emergence, 20 DAA, visual assessment (100%=total damage, 0%=no damage), read-out: Pre-emergence herbicidal activity (percentage phytotoxicity) ECHCG PRE.
Where [5] appears, read: post-emergence, 360 h, 250 g/ha, post-emergence, 15 DAA, visual assessment (100%=total damage, 0%=no damage), read-out: Post-emergence herbicidal activity (percentage phytotoxicity) AVEFA POST.
[6] abbreviates: pre-emergence, 480 h, 250 g/ha, pre-emergence, 20 DAA, visual assessment (100%=total damage, 0%=no damage), read-out: Pre-emergence herbicidal activity (percentage phytotoxicity) AVEFA PRE.
The mark [7] stands for this setting: post-emergence, 360 h, 250 g/ha, post-emergence, 15 DAA, visual assessment (100%=total damage, 0%=no damage), read-out: Post-emergence herbicidal activity (percentage phytotoxicity) LOLPE POST.
The mark [8] stands for this setting: pre-emergence, 480 h, 250 g/ha, pre-emergence, 20 DAA, visual assessment (100%=total damage, 0%=no damage), read-out: Pre-emergence herbicidal activity (percentage phytotoxicity) LOLPE PRE.
[9] abbreviates: post-emergence, 360 h, 250 g/ha, post-emergence, 15 DAA, visual assessment (100%=total damage, 0%=no damage), read-out: Post-emergence herbicidal activity (percentage phytotoxicity) ALOMY POST.
[10] abbreviates: pre-emergence, 480 h, 250 g/ha, pre-emergence, 20 DAA, visual assessment (100%=total damage, 0%=no damage), read-out: Pre-emergence herbicidal activity (percentage phytotoxicity) ALOMY PRE.
Setting [11] is: post-emergence, 360 h, Rate 250 g/ha, post-emergence, visual assessment 15 DAA, 100%=total damage, 0%=no damage, read-out: Post-emergence herbicidal activity (percentage phytotoxicity) ECHCG POST.
Setting [12] is: pre-emergence, 480 h, Rate 250 g/ha, pre-emergence, visual assessment 20 DAA, 100%=total damage, 0%=no damage, read-out: Pre-emergence herbicidal activity (percentage phytotoxicity) ECHCG PRE.
The mark [13] stands for this setting: post-emergence, 360 h, Rate 250 g/ha, post-emergence, visual assessment 15 DAA, 100%=total damage, 0%=no damage, read-out: Post-emergence herbicidal activity (percentage phytotoxicity) AVEFA POST.
[14] abbreviates: pre-emergence, 480 h, Rate 250 g/ha, pre-emergence, visual assessment 20 DAA, 100%=total damage, 0%=no damage, read-out: Pre-emergence herbicidal activity (percentage phytotoxicity) AVEFA PRE.
Setting [15] is: post-emergence, 360 h, Rate 250 g/ha, post-emergence, visual assessment 15 DAA, 100%=total damage, 0%=no damage, read-out: Post-emergence herbicidal activity (percentage phytotoxicity) LOLPE POST.
Setting [16] is: pre-emergence, 480 h, Rate 250 g/ha, pre-emergence, visual assessment 20 DAA, 100%=total damage, 0%=no damage, read-out: Pre-emergence herbicidal activity (percentage phytotoxicity) LOLPE PRE.
Where [17] appears, read: post-emergence, 360 h, Rate 250 g/ha, post-emergence, visual assessment 15 DAA, 100%=total damage, 0%=no damage, read-out: Post-emergence herbicidal activity (percentage phytotoxicity) ALOMY POST.
Setting [18] is: pre-emergence, 480 h, Rate 250 g/ha, pre-emergence, visual assessment 20 DAA, 100%=total damage, 0%=no damage, read-out: Pre-emergence herbicidal activity (percentage phytotoxicity) ALOMY PRE.
The mark [19] stands for this setting: post-emergence, 360 h, Rate 250 g/ha, post-emergence, assessed visually 15 DAA, 100%=total damage, 0%=no damage, read-out: Post-emergence herbicidal activity (percentage phytotoxicity) ECHCG POST.
Where [20] appears, read: pre-emergence, 480 h, Rate 250 g/ha, pre-emergence, assessed visually 20 DAA, 100%=total damage, 0%=no damage, read-out: Pre-emergence herbicidal activity (percentage phytotoxicity) ECHCG PRE.
Where [21] appears, read: post-emergence, 360 h, Rate 250 g/ha, post-emergence, assessed visually 15 DAA, 100%=total damage, 0%=no damage, read-out: Post-emergence herbicidal activity (percentage phytotoxicity) AVEFA POST.
The mark [22] stands for this setting: pre-emergence, 480 h, Rate 250 g/ha, pre-emergence, assessed visually 20 DAA, 100%=total damage, 0%=no damage, read-out: Pre-emergence herbicidal activity (percentage phytotoxicity) AVEFA PRE.
The mark [23] stands for this setting: post-emergence, 360 h, Rate 250 g/ha, post-emergence, assessed visually 15 DAA, 100%=total damage, 0%=no damage, read-out: Post-emergence herbicidal activity (percentage phytotoxicity) LOLPE POST.
The mark [24] stands for this setting: pre-emergence, 480 h, Rate 250 g/ha, pre-emergence, assessed visually 20 DAA, 100%=total damage, 0%=no damage, read-out: Pre-emergence herbicidal activity (percentage phytotoxicity) LOLPE PRE.
[25] abbreviates: post-emergence, 360 h, Rate 250 g/ha, post-emergence, assessed visually 15 DAA, 100%=total damage, 0%=no damage, read-out: Post-emergence herbicidal activity (percentage phytotoxicity) ALOMY POST.
[26] abbreviates: pre-emergence, 480 h, Rate 250 g/ha, pre-emergence, assessed visually 20 DAA, 100%=total damage, 0%=no damage, read-out: Pre-emergence herbicidal activity (percentage phytotoxicity) ALOMY PRE.
Where [27] appears, read: post-emergence, 360 h, POST-emergence, rate 250 g/ha, visual score 15 DAA (100%=total damage, 0%=no damage), read-out: Post-emergence herbicidal activity (percentage phytotoxicity) ECHCG POST.
Where [28] appears, read: pre-emergence, 480 h, PRE-emergence, rate 250 g/ha, visual score 20 DAA (100%=total damage, 0%=no damage), read-out: Pre-emergence herbicidal activity (percentage phytotoxicity) ECHCG PRE.
Setting [29] is: post-emergence, 360 h, POST-emergence, rate 250 g/ha, visual score 15 DAA (100%=total damage, 0%=no damage), read-out: Post-emergence herbicidal activity (percentage phytotoxicity) AVEFA POST.
Setting [30] is: pre-emergence, 480 h, PRE-emergence, rate 250 g/ha, visual score 20 DAA (100%=total damage, 0%=no damage), read-out: Pre-emergence herbicidal activity (percentage phytotoxicity) AVEFA PRE.
Setting [31] is: post-emergence, 360 h, POST-emergence, rate 250 g/ha, visual score 15 DAA (100%=total damage, 0%=no damage), read-out: Post-emergence herbicidal activity (percentage phytotoxicity) LOLPE POST.
Where [32] appears, read: pre-emergence, 480 h, PRE-emergence, rate 250 g/ha, visual score 20 DAA (100%=total damage, 0%=no damage), read-out: Pre-emergence herbicidal activity (percentage phytotoxicity) LOLPE PRE.
The mark [33] stands for this setting: post-emergence, 360 h, POST-emergence, rate 250 g/ha, visual score 15 DAA (100%=total damage, 0%=no damage), read-out: Post-emergence herbicidal activity (percentage phytotoxicity) ALOMY POST.
The mark [34] stands for this setting: pre-emergence, 480 h, PRE-emergence, rate 250 g/ha, visual score 20 DAA (100%=total damage, 0%=no damage), read-out: Pre-emergence herbicidal activity (percentage phytotoxicity) ALOMY PRE.

As to `C=C(C)CNC(=O)CC1CC(=O)C(c2c(C)cc(-c3ncc(Cl)cc3F)cc2C)C1=O` (stereo not drawn) [Compound B94], the pest or weed control at 250 g/ha is 100% in experiment [1] (setting [3]); 100% in experiment [1] (setting [4]); 100% in the experiment with Avena fatua (AVEFA) (setting [5]); 90% in the experiment on Avena fatua (AVEFA) (setting [6]); 100% in the experiment on Lolium perenne (LOLPE) (setting [7]); 100% in the experiment with Lolium perenne (LOLPE) (setting [8]). Also, the pest or weed control at 250 g/ha in experiment [2] (setting [9]) and in experiment [2] (setting [10]) was 100% each time.
For the molecule `Cc1cc(-c2ncc(Cl)cn2)cc(C)c1C1C(=O)CC(CC(=O)NCc2cccc(Cl)c2)C1=O` (stereo not drawn) [Compound B354], the pest or weed control at 250 g/ha in experiment [1] (setting [11]) stood at 100%; in experiment [1] (setting [12]) it was 90%; with Avena fatua (AVEFA) (setting [13]) it was 100%; with Avena fatua (AVEFA) (setting [14]) it was 80%; with Lolium perenne (LOLPE) (setting [15]) it was 90%; in the experiment with Lolium perenne (LOLPE) (setting [16]), 80%. For the same molecule, the pest or weed control at 250 g/ha worked out at 90% in experiment [2] (setting [17]) and 70% in experiment [2] (setting [18]).
As for `Cc1cc(C)c(C2C(=O)CC(CC(=O)N3CCOCC3)C2=O)c(C)c1` (stereo not drawn) [Compound A24], the pest or weed control at 250 g/ha in experiment [1] (setting [19]) stood at 100%; in experiment [1] (setting [20]), 100%; in the experiment on Avena fatua (AVEFA) (setting [21]) it was 90%; in the experiment on Avena fatua (AVEFA) (setting [22]), 90%; in the experiment on Lolium perenne (LOLPE) (setting [23]) it was 100%; with Lolium perenne (LOLPE) (setting [24]), 90%. In addition, the figures for the pest or weed control at 250 g/ha in experiment [2] (setting [25]) and in experiment [2] (setting [26]) were 90% and 80%, respectively.
`CCC(C)NC(=O)CC1CC(=O)C(c2c(C)cc(Br)cc2C)C1=O` (stereo not drawn) [Compound B120]: the pest or weed control at 250 g/ha in experiment [1] (setting [3]) is 80%; in experiment [1] (setting [4]), 80%; in the experiment with Avena fatua (AVEFA) (setting [5]) it was 90%; in the experiment with Avena fatua (AVEFA) (setting [6]), 70%; in the experiment on Lolium perenne (LOLPE) (setting [7]), 90%; with Lolium perenne (LOLPE) (setting [8]), 90%. Also, the pest or weed control at 250 g/ha in experiment [2] (setting [9]) and in experiment [2] (setting [10]) was 80% each time.
For `Cc1cc(-c2ncc(Br)cn2)cc(C)c1C1C(=O)CC(CC(=O)N2CCOCC2)C1=O` (stereo not drawn) [Compound B285], the pest or weed control at 250 g/ha in experiment [1] (setting [27]) was found to be 100%; in experiment [1] (setting [28]), 100%; in the experiment on Avena fatua (AVEFA) (setting [29]), 100%; in the experiment with Avena fatua (AVEFA) (setting [30]) it was 90%; in the experiment on Lolium perenne (LOLPE) (setting [31]) it was 100%; with Lolium perenne (LOLPE) (setting [32]) it was 100%. Besides, the figures for the pest or weed control at 250 g/ha in experiment [2] (setting [33]) and in experiment [2] (setting [34]) were 100% and 90%, respectively.
With `Cc1cc(-c2ncc(Cl)cn2)cc(C)c1C1=C(OC(=O)N2CCCC2)CC(CC(=O)NC(C)(C)C)C1=O` (stereo not drawn) [Compound P8], the pest or weed control at 250 g/ha in experiment [1] (setting [11]) came out at 90%; in experiment [1] (setting [12]), 70%; in the experiment with Avena fatua (AVEFA) (setting [13]), 80%; with Avena fatua (AVEFA) (setting [14]), 10%; in the experiment on Lolium perenne (LOLPE) (setting [15]) it was 70%; in the experiment on Lolium perenne (LOLPE) (setting [16]), 50%. Further, the pest or weed control at 250 g/ha in experiment [2] (setting [17]) worked out at 70%; in experiment [2] (setting [18]), 30%.
As for `Cc1cnc(CNC(=O)CC2CC(=O)C(c3c(C)cc(-c4ncc(F)cn4)cc3C)C2=O)cn1` (stereo not drawn) [Compound A157], the pest or weed control at 250 g/ha in experiment [1] (setting [19]) was determined as 100%; in experiment [1] (setting [20]), 90%; in the experiment on Avena fatua (AVEFA) (setting [21]), 90%; in the experiment with Avena fatua (AVEFA) (setting [22]) it was 70%; with Lolium perenne (LOLPE) (setting [23]), 90%; in the experiment on Lolium perenne (LOLPE) (setting [24]), 70%. Further, the pest or weed control at 250 g/ha in experiment [2] (setting [25]) worked out at 80%; in experiment [2] (setting [26]) it was 60%.
In the case of `C#CCNC(=O)CC1CC(=O)C(c2c(C)cc(-n3cc(Cl)cn3)cc2C)C1=O` (stereo not drawn) [Compound B317], the pest or weed control at 250 g/ha in experiment [1] (setting [27]) turned out to be 100%; in experiment [1] (setting [28]) it was 100%; in the experiment with Avena fatua (AVEFA) (setting [29]), 100%; with Avena fatua (AVEFA) (setting [30]), 90%; in the experiment on Lolium perenne (LOLPE) (setting [31]), 90%; in the experiment on Lolium perenne (LOLPE) (setting [32]), 90%. Further, the pest or weed control at 250 g/ha in experiment [2] (setting [33]) came out at 100%; in experiment [2] (setting [34]) it was 90%.
As to `C=CCNC(=O)CC1CC(=O)C(c2c(C)cc(/C=C/C)cc2CC)C1=O` (stereo not drawn) [Compound B193], the pest or weed control at 250 g/ha turned out to be 100% in experiment [1] (setting [27]); 100% in experiment [1] (setting [28]); 100% in the experiment on Avena fatua (AVEFA) (setting [29]); 90% with Avena fatua (AVEFA) (setting [30]); 100% in the experiment with Lolium perenne (LOLPE) (setting [31]); 100% in the experiment on Lolium perenne (LOLPE) (setting [32]). Further, the pest or weed control at 250 g/ha in experiment [2] (setting [33]) and in experiment [2] (setting [34]) was 100% in each case.
